Assay results published in publication PMC4823954, “From fighting depression to conquering tumors: a novel tricyclic thiazepine compound as a tubulin polymerization inhibitor” (Cell Death & Disease, 2016).

Assays:
Assay in all cases: KINOMEscan
Type in all cases: binding
Conditions in all cases: read-out: % Ctrl
[1] = target: T1, ACVRL1 (Homo sapiens, UniProt P37023)
T1 construct: purchased DiscoveRx KINOMEscan
In short: (§1)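 Competition binding panel of 442 non-mutant kinases: test compound at 5 and 10 μM competed with an active-site-directed ligand for 1 h with shaking. Bound kinase was eluted with 0.5 μM ligand and quantified by qPCR; %Ctrl = (compound − positive control)/(DMSO − positive control) × 100, lower meaning tighter binding.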

[2] = target: T2, BRSK1 (Homo sapiens, UniProt Q8TDC3)
T2 construct: purchased DiscoveRx KINOMEscan
In short: as §1

[3] = target: T3, CDC2L2 (Homo sapiens, UniProt Q9UQ88)
T3 construct: purchased DiscoveRx KINOMEscan
T3 sequence (Q9UQ88 whole entry): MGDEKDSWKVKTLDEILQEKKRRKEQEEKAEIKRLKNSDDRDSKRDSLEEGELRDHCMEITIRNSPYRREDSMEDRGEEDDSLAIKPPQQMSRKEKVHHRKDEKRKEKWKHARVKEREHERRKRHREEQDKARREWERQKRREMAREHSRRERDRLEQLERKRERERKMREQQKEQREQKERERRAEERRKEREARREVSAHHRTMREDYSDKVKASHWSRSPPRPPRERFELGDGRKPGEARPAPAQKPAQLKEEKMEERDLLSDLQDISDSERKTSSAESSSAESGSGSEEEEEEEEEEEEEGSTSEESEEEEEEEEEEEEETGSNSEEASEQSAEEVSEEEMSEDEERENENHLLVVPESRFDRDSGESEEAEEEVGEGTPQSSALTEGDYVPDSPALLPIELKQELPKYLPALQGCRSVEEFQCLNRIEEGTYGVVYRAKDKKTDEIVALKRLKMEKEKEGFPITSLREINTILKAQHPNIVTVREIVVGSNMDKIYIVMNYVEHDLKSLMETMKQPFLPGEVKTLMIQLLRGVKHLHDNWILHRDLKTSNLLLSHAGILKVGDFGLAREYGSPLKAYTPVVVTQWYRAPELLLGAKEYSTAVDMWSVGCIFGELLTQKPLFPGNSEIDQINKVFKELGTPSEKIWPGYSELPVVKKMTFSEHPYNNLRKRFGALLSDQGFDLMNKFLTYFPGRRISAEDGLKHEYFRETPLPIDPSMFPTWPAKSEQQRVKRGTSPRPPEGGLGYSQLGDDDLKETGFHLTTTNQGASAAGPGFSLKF
In short: as §1

[4] = target: T4, CDK11 (Homo sapiens, UniProt Q9BWU1)
T4 construct: purchased DiscoveRx KINOMEscan
T4 sequence (Q9BWU1 whole entry): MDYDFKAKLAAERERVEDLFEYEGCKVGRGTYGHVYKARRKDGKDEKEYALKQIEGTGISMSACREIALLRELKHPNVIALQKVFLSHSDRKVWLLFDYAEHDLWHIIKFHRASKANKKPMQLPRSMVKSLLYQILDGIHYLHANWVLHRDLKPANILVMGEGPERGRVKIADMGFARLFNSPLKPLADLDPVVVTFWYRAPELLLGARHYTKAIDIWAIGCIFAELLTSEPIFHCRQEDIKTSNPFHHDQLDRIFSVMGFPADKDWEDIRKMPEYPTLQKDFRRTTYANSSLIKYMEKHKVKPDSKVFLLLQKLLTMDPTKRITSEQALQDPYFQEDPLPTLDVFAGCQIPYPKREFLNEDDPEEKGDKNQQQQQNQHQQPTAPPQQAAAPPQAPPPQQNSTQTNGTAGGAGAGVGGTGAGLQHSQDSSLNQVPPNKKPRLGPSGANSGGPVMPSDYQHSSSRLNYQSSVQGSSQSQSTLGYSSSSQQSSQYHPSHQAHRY
In short: as §1

[5] = target: T5, CDK8 (Homo sapiens, UniProt P49336)
T5 construct: purchased DiscoveRx KINOMEscan
In short: as §1

[6] = target: T6, DDR1 (Homo sapiens, UniProt Q08345)
T6 construct: purchased DiscoveRx KINOMEscan
In short: as §1

[7] = target: T7, EGFR(E746-A750del) (Homo sapiens, UniProt P00533, DEL746-750)
T7 construct: purchased DiscoveRx KINOMEscan
T7 sequence (P00533 with tags, fused parts or gaps DEL746-750 limits assumed): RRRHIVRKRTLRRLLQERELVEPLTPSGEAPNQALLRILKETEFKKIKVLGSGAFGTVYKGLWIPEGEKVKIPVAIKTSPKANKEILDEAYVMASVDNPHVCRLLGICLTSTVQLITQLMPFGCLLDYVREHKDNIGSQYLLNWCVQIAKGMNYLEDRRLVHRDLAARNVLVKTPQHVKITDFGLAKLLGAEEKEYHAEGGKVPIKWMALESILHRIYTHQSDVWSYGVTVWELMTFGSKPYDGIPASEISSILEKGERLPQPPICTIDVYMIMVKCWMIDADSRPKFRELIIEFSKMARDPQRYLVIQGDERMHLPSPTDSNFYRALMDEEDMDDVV

[8] = target: T8, EPHB6 (Homo sapiens, UniProt O15197)
T8 construct: purchased DiscoveRx KINOMEscan
In short: as §1

[9] = target: T9, ERN1 (Homo sapiens, UniProt O75460)
T9 construct: purchased DiscoveRx KINOMEscan
In short: as §1

[10] = target: T10, FLT3(N841I) (Homo sapiens, UniProt P36888, N841I)
T10 construct: purchased DiscoveRx KINOMEscan

[11] = target: T11, GAK (Homo sapiens, UniProt O14976)
T11 construct: purchased DiscoveRx KINOMEscan
In short: as §1

[12] = target: T12, GCN2(Kin.Dom.2,S808G) (Homo sapiens, UniProt Q9P2K8, S808G)
T12 construct: GCN2(Kin.Dom.2,S808G); purchased DiscoveRx KINOMEscan

[13] = target: T13, GSK3B (Homo sapiens, UniProt P49841)
T13 construct: purchased DiscoveRx KINOMEscan
In short: as §1

[14] = target: T14, IRAK3 (Homo sapiens, UniProt Q9Y616)
T14 construct: purchased DiscoveRx KINOMEscan
In short: as §1

[15] = target: T15, LATS1 (Homo sapiens, UniProt O95835)
T15 construct: purchased DiscoveRx KINOMEscan
In short: as §1

[16] = target: T16, MAP3K4 (Homo sapiens, UniProt Q9Y6R4)
T16 construct: purchased DiscoveRx KINOMEscan
T16 sequence (Q9Y6R4 whole entry): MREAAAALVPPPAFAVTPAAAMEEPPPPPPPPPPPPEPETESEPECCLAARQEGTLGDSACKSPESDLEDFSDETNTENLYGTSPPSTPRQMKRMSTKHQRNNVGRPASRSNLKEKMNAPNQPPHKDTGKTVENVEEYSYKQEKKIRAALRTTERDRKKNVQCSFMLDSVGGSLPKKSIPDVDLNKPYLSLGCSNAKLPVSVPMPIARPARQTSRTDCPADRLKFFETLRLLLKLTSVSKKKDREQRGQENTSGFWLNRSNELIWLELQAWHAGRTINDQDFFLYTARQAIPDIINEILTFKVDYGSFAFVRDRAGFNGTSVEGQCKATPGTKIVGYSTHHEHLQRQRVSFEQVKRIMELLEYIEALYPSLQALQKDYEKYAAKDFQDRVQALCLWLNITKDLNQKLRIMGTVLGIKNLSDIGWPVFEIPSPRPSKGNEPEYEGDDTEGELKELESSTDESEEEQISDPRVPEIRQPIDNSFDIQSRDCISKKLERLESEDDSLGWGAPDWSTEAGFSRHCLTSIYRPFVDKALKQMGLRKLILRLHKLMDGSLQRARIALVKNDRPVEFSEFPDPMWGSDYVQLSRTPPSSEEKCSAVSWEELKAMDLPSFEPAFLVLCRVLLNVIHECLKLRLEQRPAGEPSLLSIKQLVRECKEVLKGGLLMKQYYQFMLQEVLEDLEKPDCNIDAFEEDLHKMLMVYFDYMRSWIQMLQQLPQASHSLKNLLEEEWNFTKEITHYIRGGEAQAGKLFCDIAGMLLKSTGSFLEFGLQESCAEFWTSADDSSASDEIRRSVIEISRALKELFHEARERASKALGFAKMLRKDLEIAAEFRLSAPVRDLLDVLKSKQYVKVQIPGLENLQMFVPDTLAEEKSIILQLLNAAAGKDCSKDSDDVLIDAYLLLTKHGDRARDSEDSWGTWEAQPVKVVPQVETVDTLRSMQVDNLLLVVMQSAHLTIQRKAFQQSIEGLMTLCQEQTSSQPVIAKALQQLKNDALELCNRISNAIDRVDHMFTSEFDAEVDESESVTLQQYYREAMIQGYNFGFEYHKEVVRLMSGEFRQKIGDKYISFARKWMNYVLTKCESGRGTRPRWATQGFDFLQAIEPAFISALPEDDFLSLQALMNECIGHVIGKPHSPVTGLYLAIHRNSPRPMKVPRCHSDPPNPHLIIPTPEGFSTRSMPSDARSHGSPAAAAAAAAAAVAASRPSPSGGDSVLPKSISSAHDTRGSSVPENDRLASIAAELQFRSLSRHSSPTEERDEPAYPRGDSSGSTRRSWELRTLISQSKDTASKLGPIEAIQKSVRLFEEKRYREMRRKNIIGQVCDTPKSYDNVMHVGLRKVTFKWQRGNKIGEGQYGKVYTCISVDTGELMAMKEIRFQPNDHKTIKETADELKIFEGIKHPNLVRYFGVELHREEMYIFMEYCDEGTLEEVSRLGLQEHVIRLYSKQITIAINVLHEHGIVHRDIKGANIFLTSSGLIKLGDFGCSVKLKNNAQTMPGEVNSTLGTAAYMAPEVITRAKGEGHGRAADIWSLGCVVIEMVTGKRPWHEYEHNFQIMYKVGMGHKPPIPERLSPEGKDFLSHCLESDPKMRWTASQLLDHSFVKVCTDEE
In short: as §1

[17] = target: T17, MAP4K2 (Homo sapiens, UniProt Q12851)
T17 construct: purchased DiscoveRx KINOMEscan
T17 sequence (Q12851 whole entry): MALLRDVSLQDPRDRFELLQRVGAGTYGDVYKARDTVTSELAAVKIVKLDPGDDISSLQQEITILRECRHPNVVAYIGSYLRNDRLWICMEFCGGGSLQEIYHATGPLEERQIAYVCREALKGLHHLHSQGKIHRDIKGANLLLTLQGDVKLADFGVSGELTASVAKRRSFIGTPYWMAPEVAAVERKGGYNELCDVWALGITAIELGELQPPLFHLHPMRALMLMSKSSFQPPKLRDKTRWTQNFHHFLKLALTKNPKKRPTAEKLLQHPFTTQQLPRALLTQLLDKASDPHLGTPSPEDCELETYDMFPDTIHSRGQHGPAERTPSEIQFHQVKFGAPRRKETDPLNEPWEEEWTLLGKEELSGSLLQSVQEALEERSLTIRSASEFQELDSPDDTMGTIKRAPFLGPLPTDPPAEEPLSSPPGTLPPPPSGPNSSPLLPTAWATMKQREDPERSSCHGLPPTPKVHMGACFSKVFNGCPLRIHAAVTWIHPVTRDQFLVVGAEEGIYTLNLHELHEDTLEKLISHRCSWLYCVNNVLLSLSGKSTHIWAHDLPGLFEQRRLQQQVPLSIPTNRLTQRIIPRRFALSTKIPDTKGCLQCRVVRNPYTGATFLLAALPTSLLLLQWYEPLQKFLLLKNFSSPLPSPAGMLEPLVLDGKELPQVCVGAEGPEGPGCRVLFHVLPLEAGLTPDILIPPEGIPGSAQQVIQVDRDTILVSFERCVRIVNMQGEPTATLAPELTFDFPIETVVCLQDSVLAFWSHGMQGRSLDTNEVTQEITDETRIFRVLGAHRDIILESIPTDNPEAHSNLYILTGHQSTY
In short: as §1

[18] = target: T18, MET(Y1235D) (Homo sapiens, UniProt P08581, Y1235D)
T18 construct: purchased DiscoveRx KINOMEscan

[19] = target: T19, MKK7 (Homo sapiens, UniProt O14733)
T19 construct: purchased DiscoveRx KINOMEscan
In short: as §1

[20] = target: T20, MST1 (Homo sapiens, UniProt Q13043)
T20 construct: purchased DiscoveRx KINOMEscan
In short: as §1

[21] = target: T21, NEK4 (Homo sapiens, UniProt P51957)
T21 construct: purchased DiscoveRx KINOMEscan
In short: as §1

[22] = target: T22, NIM1 (Homo sapiens, UniProt Q8IY84)
T22 construct: purchased DiscoveRx KINOMEscan
In short: as §1

[23] = target: T23, PIP5K1A (Homo sapiens, UniProt Q99755)
T23 construct: purchased DiscoveRx KINOMEscan
In short: as §1

[24] = target: T24, PKAC-beta (Homo sapiens, UniProt P22694)
T24 construct: purchased DiscoveRx KINOMEscan
In short: as §1

[25] = target: T25, PRKCQ (Homo sapiens, UniProt Q04759)
T25 construct: purchased DiscoveRx KINOMEscan
In short: as §1

[26] = target: T26, SRPK2 (Homo sapiens, UniProt P78362)
T26 construct: purchased DiscoveRx KINOMEscan
In short: as §1

[27] = target: T27, STK33 (Homo sapiens, UniProt Q9BYT3)
T27 construct: purchased DiscoveRx KINOMEscan
In short: as §1

[28] = target: T28, TBK1 (Homo sapiens, UniProt Q9UHD2)
T28 construct: purchased DiscoveRx KINOMEscan
In short: as §1

[29] = target: T29, TNIK (Homo sapiens, UniProt Q9UKE5)
T29 construct: purchased DiscoveRx KINOMEscan
In short: as §1

[30] = target: T30, TYRO3 (Homo sapiens, UniProt Q06418)
T30 construct: purchased DiscoveRx KINOMEscan
T30 sequence (Q06418 41-890): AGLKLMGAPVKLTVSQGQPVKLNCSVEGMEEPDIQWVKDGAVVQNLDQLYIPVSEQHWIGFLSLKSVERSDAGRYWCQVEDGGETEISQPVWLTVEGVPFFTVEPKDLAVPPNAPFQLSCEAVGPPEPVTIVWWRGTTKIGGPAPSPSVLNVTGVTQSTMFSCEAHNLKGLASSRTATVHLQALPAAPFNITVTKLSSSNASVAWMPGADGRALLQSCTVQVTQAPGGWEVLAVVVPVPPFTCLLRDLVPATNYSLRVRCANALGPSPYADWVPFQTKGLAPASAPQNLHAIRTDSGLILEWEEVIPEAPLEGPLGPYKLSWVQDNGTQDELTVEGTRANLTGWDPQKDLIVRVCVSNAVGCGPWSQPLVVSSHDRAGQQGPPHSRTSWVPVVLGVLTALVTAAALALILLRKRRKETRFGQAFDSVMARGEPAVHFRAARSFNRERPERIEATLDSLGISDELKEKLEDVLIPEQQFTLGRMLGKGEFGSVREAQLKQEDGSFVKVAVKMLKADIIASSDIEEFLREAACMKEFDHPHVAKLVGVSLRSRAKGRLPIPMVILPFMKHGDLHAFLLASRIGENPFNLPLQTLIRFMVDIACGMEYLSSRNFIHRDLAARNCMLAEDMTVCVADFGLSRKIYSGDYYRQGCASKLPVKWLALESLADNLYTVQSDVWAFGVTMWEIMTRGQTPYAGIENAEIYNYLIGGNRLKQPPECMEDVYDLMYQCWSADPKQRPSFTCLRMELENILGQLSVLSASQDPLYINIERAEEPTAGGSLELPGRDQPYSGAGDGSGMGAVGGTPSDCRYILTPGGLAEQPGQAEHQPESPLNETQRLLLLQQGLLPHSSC
In short: as §1

SMILES: Cc1ccc(C2=Nc3cccnc3S(=O)(=O)c3ccccc32)cc1 [TBPT, 6-(p-tolyl)benzo[f] pyrido[2,3-b][1,4] thiazepine 11,11-dioxide]
- remaining binding at 5 µM ([1]; 5 μM): 100%
- remaining binding at 10 µM ([1]; 10 μM): 71%
- remaining binding at 5 µM ([2]; 5 μM): 100%
- remaining binding at 10 µM ([2]; 10 μM): 97%
- remaining binding at 5 µM ([3]; 5 μM): 100%
- remaining binding at 10 µM ([3]; 10 μM): 100%
- remaining binding at 5 µM ([4]; 5 μM): 100%
- remaining binding at 10 µM ([4]; 10 μM): 100%
- remaining binding at 5 µM ([5]; 5 μM): 94%
- remaining binding at 10 µM ([5]; 10 μM): 100%
- remaining binding at 5 µM ([6]; 5 μM): 100%
- remaining binding at 10 µM ([6]; 10 μM): 92%
- remaining binding at 5 µM ([7]; 5 μM): 81%
- remaining binding at 10 µM ([7]; 10 μM): 100%
- remaining binding at 5 µM ([8]; 5 μM): 99%
- remaining binding at 10 µM ([8]; 10 μM): 100%
- remaining binding at 5 µM ([9]; 5 μM): 92%
- remaining binding at 10 µM ([9]; 10 μM): 100%
- remaining binding at 5 µM ([10]; 5 μM): 85%
- remaining binding at 10 µM ([10]; 10 μM): 100%
- remaining binding at 5 µM ([11]; 5 μM): 100%
- remaining binding at 10 µM ([11]; 10 μM): 90%
- remaining binding at 5 µM ([12]; 5 μM): 100%
- remaining binding at 10 µM ([12]; 10 μM): 100%
- remaining binding at 5 µM ([13]; 5 μM): 89%
- remaining binding at 10 µM ([13]; 10 μM): 100%
- remaining binding at 5 µM ([14]; 5 μM): 92%
- remaining binding at 10 µM ([14]; 10 μM): 82%
- remaining binding at 5 µM ([15]; 5 μM): 100%
- remaining binding at 10 µM ([15]; 10 μM): 100%
- remaining binding at 5 µM ([16]; 5 μM): 99%
- remaining binding at 10 µM ([16]; 10 μM): 96%
- remaining binding at 5 µM ([17]; 5 μM): 92%
- remaining binding at 10 µM ([17]; 10 μM): 100%
- remaining binding at 5 µM ([18]; 5 μM): 89%
- remaining binding at 10 µM ([18]; 10 μM): 85%
- remaining binding at 5 µM ([19]; 5 μM): 100%
- remaining binding at 10 µM ([19]; 10 μM): 100%
- remaining binding at 5 µM ([20]; 5 μM): 93%
- remaining binding at 10 µM ([20]; 10 μM): 100%
- remaining binding at 5 µM ([21]; 5 μM): 65%
- remaining binding at 10 µM ([21]; 10 μM): 99%
- remaining binding at 5 µM ([22]; 5 μM): 90%
- remaining binding at 10 µM ([22]; 10 μM): 78%
- remaining binding at 5 µM ([23]; 5 μM): 98%
- remaining binding at 10 µM ([23]; 10 μM): 100%
- remaining binding at 5 µM ([24]; 5 μM): 96%
- remaining binding at 10 µM ([24]; 10 μM): 100%
- remaining binding at 5 µM ([25]; 5 μM): 100%
- remaining binding at 10 µM ([25]; 10 μM): 100%
- remaining binding at 5 µM ([26]; 5 μM): 96%
- remaining binding at 10 µM ([26]; 10 μM): 78%
- remaining binding at 5 µM ([27]; 5 μM): 99%
- remaining binding at 10 µM ([27]; 10 μM): 100%
- remaining binding at 5 µM ([28]; 5 μM): 100%
- remaining binding at 10 µM ([28]; 10 μM): 100%
- remaining binding at 5 µM ([29]; 5 μM): 84%
- remaining binding at 10 µM ([29]; 10 μM): 97%
- remaining binding at 5 µM ([30]; 5 μM): 99%
- remaining binding at 10 µM ([30]; 10 μM): 100%
